ChEMBL document CHEMBL4219148, “Discovery of a highly potent orally bioavailable imidazo-[1, 2-a]pyrazine Aurora inhibitor” (Bioorg Med Chem Lett, 2018)

What was measured:
Aurora kinase A = biological target: T1, Aurora kinase A (Homo sapiens, UniProt O14965); assay: Inhibition of Aurora A (unknown origin) using Tamra-PKAtide as substrate by fluorescence polarization assay
T1 sequence (O14965 whole entry): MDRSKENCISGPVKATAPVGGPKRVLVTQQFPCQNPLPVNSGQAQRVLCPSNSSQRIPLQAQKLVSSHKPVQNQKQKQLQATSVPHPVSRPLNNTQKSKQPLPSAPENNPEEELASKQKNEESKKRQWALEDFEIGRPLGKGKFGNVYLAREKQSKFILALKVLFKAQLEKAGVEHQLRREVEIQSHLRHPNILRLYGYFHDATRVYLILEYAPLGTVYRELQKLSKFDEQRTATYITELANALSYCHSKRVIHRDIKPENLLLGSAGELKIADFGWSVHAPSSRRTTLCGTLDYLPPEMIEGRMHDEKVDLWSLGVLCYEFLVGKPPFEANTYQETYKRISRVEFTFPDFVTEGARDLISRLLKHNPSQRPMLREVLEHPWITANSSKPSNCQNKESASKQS

Aurora kinase B [1] = biological target: T2, Aurora kinase B (Homo sapiens, UniProt Q96GD4); assay: Inhibition of Aurora B (unknown origin) using Tamra-PKAtide as substrate by fluorescence polarization assay
T2 sequence (Q96GD4 whole entry): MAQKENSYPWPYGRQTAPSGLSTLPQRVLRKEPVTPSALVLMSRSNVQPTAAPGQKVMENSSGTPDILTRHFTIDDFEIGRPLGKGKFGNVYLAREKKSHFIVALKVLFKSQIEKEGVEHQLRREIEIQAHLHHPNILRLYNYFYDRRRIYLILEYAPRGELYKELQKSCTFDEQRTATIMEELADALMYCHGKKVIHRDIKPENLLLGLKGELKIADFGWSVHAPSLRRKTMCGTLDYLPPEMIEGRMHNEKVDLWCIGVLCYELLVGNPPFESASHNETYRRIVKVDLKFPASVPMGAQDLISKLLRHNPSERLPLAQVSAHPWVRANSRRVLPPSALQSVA

Aurora kinase B [2] = biological target: T2, Aurora kinase B; assay: Inhibition of Aurora B in human HCT116 cells assessed as reduction in phosphorylation of Histone H3 at Ser10 residue incubated for 1 hr by Hoechst 33342 dye-based immunofluorescence microscopic method; type: cell-based
[3] = AUC (0 to 6 hrs) in rat at 10 mg/kg, po; type: ADME, organism-based; parameters: time < 6 hr, dose 10 mg/kg, route oral; conditions: in vivo
[4] = Apparent permeability from apical to basolateral side in human intestinal Caco2 cells; type: ADME, cell-based; conditions: Caco-2
[5] = AUC (0 to 24 hrs) in rat at 30 mg/kg, po; type: ADME, organism-based; parameters: time < 24 hr, dose 30 mg/kg, route oral; conditions: in vivo

Compound	IC50 (Aurora kinase A)	IC50 (Aurora kinase B [1])	EC50 (Aurora kinase B [2])	AUC(0-t) at 6 h [3]	Papp A→B [4]	AUC(0-t) at 24 h [5]
Cc1cn2c(-c3cn[nH]c3)cnc2c(Nc2cc(Cc3cccc(F)n3)ns2)n1	< 4 nM	< 13 nM	100 nM	7.3 µM·h		
Cc1cn2c(-c3cn[nH]c3)cnc2c(Nc2cc(Cc3cnccn3)ns2)n1	< 4 nM	< 13 nM	208 nM	0.15 µM·h	4.3 ×10⁻⁶ cm/s	
Cc1ccc(Cc2cc(Nc3nc(C)cn4c(-c5cn[nH]c5)cnc34)sn2)nc1	< 4 nM	< 13 nM	475 nM	3.4 µM·h		
Cc1cn2c(-c3cn[nH]c3)cnc2c(Nc2cc(Cc3ncccc3F)ns2)n1	< 4 nM	< 13 nM	182 nM	1.4 µM·h		
Cc1cn2c(-c3cn[nH]c3)cnc2c(Nc2cc(Cc3ccc(F)cn3)ns2)n1	< 4 nM	< 13 nM	486 nM	5.5 µM·h		
Cc1cn2c(-c3cn[nH]c3)cnc2c(Nc2cc(Cc3cccnc3)ns2)n1	< 4 nM	< 13 nM	> 1000 nM			
Cc1cn2c(-c3cn[nH]c3)cnc2c(Nc2cc(Cc3ncccc3C)ns2)n1	< 4 nM	< 13 nM	250 nM	1.6 µM·h		
Cc1ccnc(Cc2cc(Nc3nc(C)cn4c(-c5cn[nH]c5)cnc34)sn2)c1	< 4 nM	< 13 nM	376 nM	4.6 µM·h		
Cc1cn2c(-c3cn[nH]c3)cnc2c(Nc2cc(Cc3cccc(C(=O)N4CCCCC4)n3)ns2)n1	< 4 nM	< 13 nM	245 nM	0.1 µM·h		
COc1cccc(Cc2cc(Nc3nc(C)cn4c(-c5cn[nH]c5)cnc34)sn2)n1	< 4 nM	< 13 nM	356 nM	5.5 µM·h		
Cc1cn2c(-c3cn[nH]c3)cnc2c(Nc2cc(Cc3ccncc3)ns2)n1	< 4 nM	< 13 nM	> 1000 nM			
Cc1cn2c(-c3cn[nH]c3)cnc2c(Nc2cc(Cc3nccs3)ns2)n1	< 4 nM	< 13 nM	170 nM	3.9 µM·h		
Cc1cn2c(-c3cn[nH]c3)cnc2c(Nc2cc(Cc3cccc(CN4CCCCC4)n3)ns2)n1	< 4 nM	< 13 nM	289 nM			
Cc1cn2c(-c3cn[nH]c3)cnc2c(Nc2cc(Cc3cccc(CO)n3)ns2)n1	< 4 nM	< 13 nM	559 nM			
Cc1cn2c(-c3cn[nH]c3)cnc2c(Nc2cc(Cn3cccc(C)c3=O)ns2)n1	< 4 nM	< 13 nM	487 nM			
Cc1cn2c(-c3cn[nH]c3)cnc2c(Nc2cc(Cn3ccnc3)ns2)n1	< 4 nM	< 13 nM	370 nM			
Cc1cccc(Cc2cc(Nc3nc(C)cn4c(-c5cn[nH]c5)cnc34)sn2)n1	< 4 nM	< 13 nM	88 nM	7.7 µM·h		
Cc1cn2c(-c3cn[nH]c3)cnc2c(Nc2cc(Cn3cccn3)ns2)n1	< 4 nM	< 13 nM	184 nM			
Cc1cn2c(-c3cn[nH]c3)cnc2c(Nc2cc(Cn3cccc3)ns2)n1	< 4 nM	< 13 nM	530 nM			
Cc1cn2c(-c3cn[nH]c3)cnc2c(Nc2cc(Cc3ncccn3)ns2)n1	< 4 nM	< 13 nM	203 nM	1.8 µM·h		
Cc1cn2c(-c3cn[nH]c3)cnc2c(Nc2cc(C(NC(C)(C)C)c3ccccn3)ns2)n1 (racemic)	< 4 nM	< 13 nM	< 16 nM	1.6 µM·h		
Cc1cn2c(-c3cn[nH]c3)cnc2c(Nc2cc(C(c3ccccn3)N3CCC(F)CC3)ns2)n1 (racemic)	< 4 nM	< 13 nM	83 nM	0.45 µM·h		
Cc1cn2c(-c3cn[nH]c3)cnc2c(Nc2cc(C(c3ccccn3)N3CCCC3)ns2)n1 (racemic)	< 4 nM	< 13 nM	< 16 nM	0.02 µM·h		
Cc1cn2c(-c3cn[nH]c3)cnc2c(Nc2cc(C(NC3CCCC3)c3ccccn3)ns2)n1 (racemic)	< 4 nM	< 13 nM	< 16 nM	0.67 µM·h		
Cc1cn2c(-c3cn[nH]c3)cnc2c(Nc2cc(C(c3ccccn3)N3CCCCC3)ns2)n1 (racemic)	< 4 nM	< 13 nM	< 16 nM	0.21 µM·h		
Cc1cn2c(-c3cn[nH]c3)cnc2c(Nc2cc(C(NC(C)(C)C)c3ccccn3)ns2)n1 (single isomer, unassigned; (-))	≤ 4 nM	≤ 13 nM	50 nM			39 µM·h
